Experimental data taken from patent publication US4869895A, “Radiolabeled benzazepine” (Hoffmann-La Roche Inc., priority 1988, dated 1989).

Assays:
[1] = test system: BZ receptors in the brain; test: in vivo binding of the compound of formula I in mouse cerebral cortex; design: species or system mouse (male, ICR); conditions: mice, tail vein injection
Method: In vivo binding of the compound of formula I was determined according to the following procedures. Mice (male, 30 g ICR, Hilltop Farms) were injected via the tail vein with the compound of formula I. Ten or 30 minutes later, the mice were killed, the cerebral cortices of the brains were dissected solubilized, and the radioactivity was determined using standard methods. In order to determine nonspecific binding, some mice were pretreated with 5 mg/kg clonazepam (30 min ip). Specific/nonspecific binding ratios in cerebral cortex were about 2 at 10 minutes. The tissues in these tests were assayed directly without first homogenizing and washing them to reduce nonspecific binding. Therefore, the ratios were true in vivo ratios. Radioactivity was low and specific binding was negligible at 30 minutes.

[2] = test system: benzodiazepine (BZ) receptor; test: in vitro benzodiazepine receptor binding of the compound of formula I (saturation, rat cerebral cortical tissue); design: species or system rat (male, Sprague-Dawley); conditions: for Bmax / Kd: 60 min incubation, pH 7.7; for Ratio (Specific/nonspecific): concentration of the compound of formula I at Kd, nonspecific with 10^-6 M clonazepam
[3] = biological target: benzodiazepine (BZ) receptor; test: in vitro displacement: prevention of the binding of the compound of formula I; design: species or system rat (male, Sprague-Dawley); conditions: rat cerebral cortical tissue; given in words only

**Q.** With `[3H]c1cc(Cl)cc2c1C1=C(CN=C2c2ccccc2Cl)C(=O)NC1` [compound of formula I, 8-Chloro-6-(2-chlorophenyl)-1,4-dihydropyrrolo-[3,4-d][2]-10-t-benzazepin-3(2H)-one] as the compound, how does the “Specific/nonspecific binding ratio in cerebral cortex” value ([1]; 10 minutes, nonspecific: 5 mg/kg clonazepam (30 min ip), tissue not homogenized or washed) read?
**A.** about 2

**Q.** What about the “Radioactivity in cerebral cortex” value ([1]; 30 minutes) of the same compound?
**A.** low

**Q.** What about the “specific binding in cerebral cortex” value ([1]; 30 minutes) of the same compound?
**A.** negligible

**Q.** And the Bmax ([2]; 0 °C)?
**A.** 1.36 × 10^-10 mol/mg wet weight

**Q.** And the Kd ([2]; 0 °C)?
**A.** 0.18 ± 0.05 nM

**Q.** What about the “Ratio (Specific/nonspecific)” value ([2]; 0 °C) of the same compound?
**A.** 12

**Q.** What about the “specific to nonspecific ratios (FIG. 1)” value ([2]; 37 °C, 0.01 to 10 nM, over a relatively large range of concentrations) of the same compound?
**A.** high

**Q.** What about the Bmax ([2]; 37 °C) of the same compound?
**A.** 1.22 × 10^-10 mol/mg wet weight

**Q.** And the Kd ([2]; 37 °C)?
**A.** 0.82 ± 0.03 nM

**Q.** And the “Ratio (Specific/nonspecific)” value ([2]; 37 °C)?
**A.** 4

**Q.** What about the “affinity and selectivity for BZ receptors in the brain” value ([2]; summary statement) of the same compound?
**A.** high affinity and is a selective ligand for BZ receptors in the brain

**Q.** For `CCOC(=O)c1ncn2c1CN(C)C(=O)c1cc(F)ccc1-2` [Ethyl-8-fluoro-5,6-dehydro-5-methyl-6-oxo-4H-imidazol-[1,5-a]-1,4[benzodiazepine-3-carboxylate]], which “Ki, prevention of binding of the compound of formula I” value (“Ki, prevention” below) [3] is on record?
**A.** in the nM range

**Q.** With `O=C1CN=C(c2ccccc2Cl)c2cc([N+](=O)[O-])ccc2N1` [clonazepam] as the compound, how does the “Ki, prevention” value [3] read?
**A.** in the nM range

**Q.** Which “Ki, prevention” value [3] does the source give for `Cc1ncc2n1-c1ccc(Cl)cc1C(c1ccccc1F)=NC2` [midazolam] here?
**A.** in the nM range
